The text below walks through data of PMC10664828, “Tetrazole and acylsulfonamide bioisosteric replacements of the carboxylic acid in a dual MCL-1/BCL-xL inhibitor are tolerated” (RSC Advances, 2023).

One may read the IC50 as the midpoint of a concentration-inhibition curve.

Where two headings read alike, the source gives them in different places.

For series [1] the following is noted: cited from earlier work.
Series [2] deals with T1, MCL-1 (Homo sapiens, UniProt Q07820).
T1 construct: His6-MBP (cleaved yes); made in house; host or cells: E. coli
T1 sequence (Q07820 172-327): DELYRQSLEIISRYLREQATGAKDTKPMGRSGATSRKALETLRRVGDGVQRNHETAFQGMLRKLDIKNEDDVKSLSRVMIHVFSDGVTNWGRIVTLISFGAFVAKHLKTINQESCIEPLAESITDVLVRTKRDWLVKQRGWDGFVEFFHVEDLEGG
Briefly: Fluorescence polarization competition assay (FPCA) with FITC-Bak, MCL-1. To be noted: for fold better MCL-1 affinity than parent compound 1: relative to compound 1; for MCL-1 inhibition in FPCA (in words): cell-free MCL-1 binding assay. The class given is binding. On the procedure: The tagged protein was initially purified from the crude cell lysate by IMAC chromatography (GE Healthcare Life Sciences), and after dialysis to remove the imidazole the affinity tag was cleaved using PreScission Protease (GE Healthcare Life Sciences). A Sephacryl S-200 size exclusion column was used as a final purification step before the protein was concentrated with a 10 000 MWCO centrifugal filter concentrator (Millipore).
(§1) Fluorescence polarization experiments were conducted using a BMG PHERAstar FS multimode microplate reader equipped with two PMTs for simultaneous measurements of the perpendicular and parallel fluorescence emission. The assays were performed in black polypropylene 384-well microplate (Costar) with a final volume of […]. […] For the fluorescence polarization competition titrations, an equation derived by Nikolovska-Coleska et al.[16] was used to calculate the Ki from the IC50 data. All experiments were run in three biological replicates, each in triplicate.
For orientation: In fluorescence polarisation assays a small probe gives low polarisation when free and higher when bound to something large.

Series [3] relates to HL60 cells. Nature of the series: CellTiter-Blue cell viability assay. The class given is cell-based. To be noted: Homo sapiens. Here is the method: Cell viability studies were conducted using the CellTiter-Blue® (Promega, Madison, WI) assay. Briefly, HL60 cells, were seeded in a 96-well plate and maintained at 37 °C with 5% CO2 for 24 h. The cells were then exposed to test compounds at 11 concentrations ranging from 0 to 20 mM. After 72 h, cell viabilities were then determined according to the manufacturer's instructions.
(In general: Alamar Blue is a resazurin reagent that responds to reducing activity.)

For series [4], the target named is T2, BCL-xL (Homo sapiens, UniProt Q07817).
T2 construct: (or 15 nM Bcl-xL^2-212 (R&D Systems)); b80 says SinBiological
T2 sequence (Q07817 2-212): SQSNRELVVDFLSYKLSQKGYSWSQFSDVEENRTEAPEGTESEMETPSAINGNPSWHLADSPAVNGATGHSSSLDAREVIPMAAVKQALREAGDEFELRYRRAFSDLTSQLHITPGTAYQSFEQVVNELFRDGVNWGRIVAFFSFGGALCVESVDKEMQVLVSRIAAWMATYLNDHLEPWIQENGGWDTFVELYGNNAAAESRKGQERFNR
Nature of the series: Fluorescence polarization competition assay (FPCA) with FITC-Bak, BCL-xL. Format: binding. As to conditions: for Ki: read-out: K i (BCL-xL). On the procedure:
BCl-xL was purchased from SinBiological.
as §1

Series [5] addresses T1, MCL-1. As to conditions: Table 2; FPCA; read-out: K i (MCL-1); cited from earlier work.
Series [6] concerns the target T2, BCL-xL. To be noted: Table 2; FPCA; read-out: K i (BCL-xL); cited from earlier work.
Where [7] appears, read: Table 1, FPCA, 100 nM Mcl-1 172-327, 10 nM FITC-Bak, read-out: K i.
The mark [8] stands for this setting: HL-60, 72 h, 10% FBS, 72 h, read-out: HL60 IC50.
Setting [9] is: HL-60, 72 h, […] FBS, 72 h, read-out: HL60 IC50.
[10] abbreviates: Table 2, FPCA, read-out: K i (MCL-1).

Consider `CC(C)CN(c1ccc(C(=O)NO)c(O)c1)S(=O)(=O)c1ccc(Oc2ccccc2)cc1` [Compound 4, N,2-Dihydroxy-4-(N-isobutyl-4-phenoxyphenylsulfonamido)benzamide], for which the pKa in series [1] (value of the functional group) was 8–9. Also, the Ki in series [2] (setting [7]) came out at 70600 ± 5800 nM.
Turning to `Cc1cc(Oc2ccc(S(=O)(=O)N(Cc3ccccc3)c3ccc(C(=O)O)c(O)c3)cc2)cc(C)c1Cl` [Compound 17cd, reference compound], the IC50 in series [3] (setting [8]) was 53.2 µM; in series [3] (setting [9]) it was 5.79 µM; in series [3] (HL-60, text of introduction, read-out: IC50, viability of human leukemia HL60 cells) it was 18.5 µM.
Regarding `CC(C)CN(c1ccc(-c2nn[nH]n2)cc1)S(=O)(=O)c1ccc(Oc2ccccc2)cc1` [Compound 5, N-(4-(2H-Tetrazol-5-yl)phenyl)-N-isobutyl-4-phenoxybenzenesulfonamide], the pKa in series [1] (value of the functional group) is 4–5. Also, the Ki in series [2] (setting [7]) was found to be 3290 ± 260 nM. The “fold better MCL-1 affinity than parent compound 1” value in series [2] is given as at least 2 fold. The IC50 in series [3] (setting [8]) was above 120 µM; in series [3] (setting [9]), 15.7 µM.
`Cc1cc(Oc2ccc(S(=O)(=O)N(Cc3ccccc3)c3ccc(C(=O)NS(=O)(=O)c4ccc(NCC5CCOCC5)c([N+](=O)[O-])c4)c(O)c3)cc2)cc(C)c1Cl` [Compound 7d, 4-(N-Benzyl-4-(4-chloro-3,5-dimethylphenoxy)phenylsulfonamido)-2-hydroxy-N-((3-nitro-4-(((tetrahydro-2H-pyran-4-yl)methyl)amino)phenyl)sulfonyl)benzamide]: the Ki in series [2] (setting [10]) stood at 800 ± 70 nM; in series [4], 1820 ± 180 nM. The results for the IC50 in series [3] (setting [8]) and in series [3] (setting [9]) were above 120 µM and 7.45 µM, respectively.
Turning to `CC(=O)OCOC(=O)c1ccc(N(CC(C)C)S(=O)(=O)c2ccc(Oc3ccccc3)cc2)cc1O` [Compound 3, Acetoxymethyl 2-hydroxy-4-(N-isobutyl-4-phenoxyphenylsulfonamido)benzoate], the “MCL-1 inhibition in FPCA (in words)” value in series [2] is “inactive”. For the same compound, the Ki in series [2] (read-out: K i) was above 500000 nM. Besides, the IC50 in series [3] (setting [8]) is above 120 µM; in series [3] (setting [9]), 46.4 µM.
Turning to `Cc1cc(Oc2ccc(S(=O)(=O)N(Cc3ccccc3)c3ccc(O)c(C(=O)NS(=O)(=O)c4ccc(NCC5CCOCC5)c([N+](=O)[O-])c4)c3)cc2)cc(C)c1Cl` [Compound 29, 5-(N-Benzyl-4-(4-chloro-3,5-dimethylphenoxy)phenylsulfonamido)-2-hydroxy-N-((3-nitro-4-(((tetrahydro-2H-pyran-4-yl)methyl)amino)phenyl)sulfonyl)benzamide], the Ki worked out at 1010 ± 80 nM in series [2] (setting [10]) and 1540 ± 230 nM in series [4].
For the compound `CC(C)CN(c1ccc(C#N)c(O)c1)S(=O)(=O)c1ccc(Oc2ccccc2)cc1` [Compound 8, N-(4-Cyano-3-hydroxyphenyl)-N-isobutyl-4-phenoxybenzenesulfonamide], the pKa entry in series [1] (cyanophenol, no reference given) is “about 7”. In series [2], the “MCL-1 inhibition in FPCA (in words)” value is on record as “no inhibition”. In series [2] (read-out: K i), the Ki was above 500000 nM.
Consider `Cc1cc(Oc2ccc(S(=O)(=O)N(Cc3ccccc3)c3ccc(O)c(C(=O)O)c3)cc2)cc(C)c1Cl` [Compound 27, 5-(N-Benzyl-4-(4-chloro-3,5-dimethylphenoxy)phenylsulfonamido)-2-hydroxybenzoic acid], for which the Ki amounted to 1400 ± 470 nM in series [2] (setting [10]) and 1820 ± 230 nM in series [4] (Table 2, FPCA, 15 nM Bcl-xL 2-212, 10 nM FITC-Bak).
Take `Cc1cc(Oc2ccc(S(=O)(=O)N(CC(C)C)c3ccc(O)c(C(=O)O)c3)cc2)cc(C)c1Cl` [Compound 6e-OH-5, reference compound]: the Ki in series [5] is 778 ± 41 nM; in series [6], 2190 ± 190 nM. Moreover, the IC50 in series [3] (setting [8]) was above 120 µM; in series [3] (setting [9]) it was 9.82 µM.
Consider `CC(C)CN(c1ccc(C(=O)O)c(O)c1)S(=O)(=O)c1ccc(Oc2ccccc2)cc1` [Compound 1], for which the IC50 in series [3] (setting [8]) is above 120 µM; in series [3] (setting [9]) it was 18.5 µM.
As to `O=C(NS(=O)(=O)c1ccc(NCC2CCOCC2)c([N+](=O)[O-])c1)c1ccc(N(Cc2ccccc2)S(=O)(=O)c2ccc(Oc3ccccc3)cc2)cc1O` [Compound 7c, 4-(N-Benzyl-4-phenoxyphenylsulfonamido)-2-hydroxy-N-((3-nitro-4-(((tetrahydro-2H-pyran-4-yl)methyl)amino)phenyl)sulfonyl)benzamide], the Ki was found to be 1230 ± 150 nM in series [2] (setting [10]) and 1050 ± 140 nM in series [4].
With `O=C(NS(=O)(=O)c1ccccc1)c1ccc(N(Cc2ccccc2)S(=O)(=O)c2ccc(Oc3ccccc3)cc2)cc1O` [Compound 7b, 4-(N-Benzyl-4-phenoxyphenylsulfonamido)-2-hydroxy-N-(phenylsulfonyl)benzamide], the Ki in series [2] (read-out: K i) is 1950 ± 220 nM; in series [4], 2340 ± 220 nM. The “fold better MCL-1 affinity than parent compound 1” value in series [2] is at least 2 fold. In addition, the “fold improvement in BCL-xL inhibitory activity” value in series [4] (relative to 7a) was found to be 3 fold.
As for `CS(=O)(=O)NC(=O)c1ccc(N(Cc2ccccc2)S(=O)(=O)c2ccc(Oc3ccccc3)cc2)cc1O` [Compound 7a, 4-(N-Benzyl-4-phenoxyphenylsulfonamido)-2-hydroxy-N-(methylsulfonyl)benzamide], the Ki amounted to 2940 ± 350 nM in series [2] (setting [7]), 2940 ± 350 nM in series [2] (setting [10]) and 7220 ± 1070 nM in series [4]. In addition, the “fold better MCL-1 affinity than parent compound 1” value in series [2] is reported as at least 2 fold. In series [4] (relative to 17cd), the “fold weaker BCL-xL inhibition than parent compound 17cd” value is “about 4 fold”.
For the compound `CC(C)CN(c1ccc(-c2cc(=O)[nH]o2)cc1)S(=O)(=O)c1ccc(Oc2ccccc2)cc1` [Compound 6, N-Isobutyl-N-(4-(3-oxo-2,3-dihydroisoxazol-5-yl)phenyl)-4-phenoxybenzenesulfonamide], the pKa in series [1] (value of the functional group) is given as 4–5. For the same compound, in series [2], the “MCL-1 inhibition in FPCA (in words)” value is on record as “no inhibition”. For the same compound, the Ki in series [2] (read-out: K i) is above 500000 nM.
For `COC(=O)c1ccc(N(CC(C)C)S(=O)(=O)c2ccc(Oc3ccccc3)cc2)cc1O` [Compound 2, Methyl 2-hydroxy-4-(N-isobutyl-4-phenoxyphenylsulfonamido)benzoate], the “MCL-1 inhibition in FPCA (in words)” value in series [2] was “inactive”. In addition, in series [2] (read-out: K i), the Ki was above 500000 nM. Also, the IC50 in series [3] (setting [8]) was determined as 76.4 µM; in series [3] (setting [9]), 68.1 µM.
